In brackets after ≈: the same amount, converted by molar mass.
The molecules below were run on Mycobacterium tuberculosis (assay: Antitubercular activity against Mycobacterium tuberculosis H37Rv assessed as bacterial growth inhibition by MABA relative to control).
Type: functional

SMILES	MIC
COc1cc(/C=C\Nc2nc(-c3ccc(NC(=O)c4ccccc4)cc3)cs2)cc(OC)c1OC	25 µg/mL (≈ 51.3 µM)
Nc1nc(-c2ccc(N3C(=O)CCC3=O)cc2)cs1	6.25 µg/mL (≈ 22.9 µM)
O=C(Nc1ccc(-c2csc(N/C=C\c3ccccc3[N+](=O)[O-])n2)cc1)c1ccccc1	6.25 µg/mL (≈ 14.1 µM)
O=C1CCC(=O)N1c1ccc(-c2csc(N/C=C\c3ccccc3[N+](=O)[O-])n2)cc1	100 µg/mL (≈ 238 µM)
O=C1CCC(=O)N1c1ccc(-c2csc(N/C=C\c3ccc(F)cc3)n2)cc1	12.5 µg/mL (≈ 31.8 µM)
O=C1CCC(=O)N1c1ccc(-c2csc(N/C=C\c3cccc(Cl)c3)n2)cc1	25 µg/mL (≈ 61 µM)
CC[C@@H](CO)NCCN[C@@H](CC)CO [ETHAMBUTOL]	3.2 µg/mL (≈ 15.7 µM)
O=C(Nc1ccc(-c2csc(N/C=C\c3ccc(F)cc3)n2)cc1)c1ccccc1	12.5 µg/mL (≈ 30.1 µM)
O=C1CCC(=O)N1c1ccc(-c2csc(N/C=C\c3ccc(O)cc3)n2)cc1	100 µg/mL (≈ 255 µM)
O=C1c2ccccc2C(=O)N1c1ccc(-c2csc(N/C=C\c3ccccc3[N+](=O)[O-])n2)cc1	25 µg/mL (≈ 53.4 µM)
Nc1nc(-c2ccc(N3C(=O)c4ccccc4C3=O)cc2)cs1	12.5 µg/mL (≈ 38.9 µM)
COc1cc(/C=C\Nc2nc(-c3ccc(N4C(=O)CCC4=O)cc3)cs2)cc(OC)c1OC	25 µg/mL (≈ 53.7 µM)
CO[C@H]1/C=C/O[C@@]2(C)Oc3c(C)c(O)c4c(O)c(c(/C=N/N5CCN(C)CC5)c(O)c4c3C2=O)NC(=O)/C(C)=C\C=C\[C@H](C)[C@H](O)[C@@H](C)[C@@H](O)[C@@H](C)[C@H](OC(C)=O)[C@@H]1C [RIFAMPIN]	0.8 µg/mL (≈ 0.972 µM)
Nc1nc(-c2ccc(NC(=O)c3ccccc3)cc2)cs1	50 µg/mL (≈ 169 µM)
NNC(=O)c1ccncc1 [ISONIAZID]	1.6 µg/mL (≈ 11.7 µM)
COc1cc(/C=C\Nc2nc(-c3ccc(N4C(=O)c5ccccc5C4=O)cc3)cs2)cc(OC)c1OC	6.25 µg/mL (≈ 12.2 µM)
O=C(O)c1cn(C2CC2)c2cc(N3CCNCC3)c(F)cc2c1=O [CIPROFLOXACIN]	3.12 µg/mL (≈ 9.43 µM)
CN[C@@H]1[C@H](O[C@H]2[C@H](O[C@H]3[C@H](O)[C@@H](O)[C@H](N=C(N)N)[C@@H](O)[C@@H]3N=C(N)N)O[C@@H](C)[C@]2(O)C=O)O[C@@H](CO)[C@H](O)[C@H]1O [STREPTOMYCIN]	0.8 µg/mL (≈ 1.38 µM)
O=C(Nc1ccc(-c2csc(N/C=C\c3ccc(O)cc3)n2)cc1)c1ccccc1	6.25 µg/mL (≈ 15.1 µM)
O=C(Nc1ccc(-c2csc(N/C=C\c3cccc(Cl)c3)n2)cc1)c1ccccc1	25 µg/mL (≈ 57.9 µM)
NC(=O)c1cnccn1 [PYRAZINAMIDE]	3.12 µg/mL (≈ 25.4 µM)

— ChEMBL document CHEMBL4699610, “Synthesis and biological evaluation of anti-tubercular activity of Schiff bases of 2-Amino thiazoles” (2020)
